Results on three compounds are retold here after PMC5485989, “Role of Free Radicals and Biotransformation in Trichloronitrobenzene-Induced Nephrotoxicity In Vitro” (International Journal of Molecular Sciences, 2017).

The structures appear in SMILES notation. Where “and” joins values, the source holds several entries; their conditions need not be identical. Identical values can stand only once. Marks after values point to notes of the source that are not given here.

Data set [1] relates to isolated renal cortical cells (IRCC). Description: Time and concentration cytotoxicity study, LDH release in IRCC. Format: cell-based, male Fischer 344 rats. To be noted: for Cytotoxicity (LDH release), time and concentration response: 0.5 or 1.0 mM, 15-120 min, significant difference from DMSO control, p < 0.05. Here is the method: To determine the comparative nephrotoxic potential of the four TCNBs in IRCC, a time and concentration response study was performed starting at 15 min and 0.5 or 1.0 mM and adjusting the times tested based on the results (Figure 2).
(LDH in the medium is a marker of cell lysis.)

For data set [2] the test system is unchanged. Description: Effect of antioxidant or biotransformation inhibitor pretreatment on TCNB cytotoxicity, LDH release in IRCC. To be noted: 1.0 mM 2,3,4-TCNB alone, 60 min; one value per pretreatment experiment; mean ± S.E., n = 4. Here is the method:
Untreated rats were anesthetized with pentobarbital (75 mg/kg, i.p.) and isolated renal cortical cells (IRCC) were obtained by using the collagenase perfusion method. Initial cell viability was determined by measuring trypan blue (2% w/v) exclusion and lactate dehydrogenase (LDH) release. […] IRCC were then exposed to various concentrations of a TCNB (0, 0.5, or 1.0 mM) for 15, 30, 60, 90, or 120 min. Following the incubation period, flasks were removed and placed on ice. Samples (0.5 mL) were taken for LDH release assays. Briefly, the samples were centrifuged (3000× g, 3 min), the was supernatant decanted and saved, and the pellet was disrupted with 1 mL of 10% Triton X-100 solution to release cellular LDH activity. LDH activity was then determined in each fraction (supernatant and pellet) as previously described using a kinetic assay based on the amount of NADH produced from NAD [57]. The LDH released was expressed as % of total (supernatant plus pellet).
Concentrations used in these experiments were 0.5 mM (3,4,5-TCNB) or 1.0 mM (2,3,4-, 2,4,5- and 2,4,6-TCNB). Incubation times with a TCNB added were 30 min (3,4,5-TCNB), 60 min (2,3,4-TCNB), or 90 min (2,4,5- and 2,4,6-TCNB). The pretreatment times and concentrations for all of the pretreatments are shown below in Table 5.

A further data set relates to renal cortical slices. To be noted: 120 min incubations; cited from earlier work.
Data set [3] deals with isolated renal cortical cells (IRCC). Description: 4-HNE adduction in IRCC (Western blot). Format: cell-based, male Fischer 344 rats. To be noted: 0.5 or 1.0 mM, 15 or 30 min. Here is the method: (§1) To determine if oxidative stress plays a role in 3,4,5-TCNB nephrotoxicity, experiments were conducted to determine the temporal aspects of free radical damage as evidenced by protein carbonylation (OxyBlot) and 4-hydroxynonenal (4-HNE) adduction.
(§2) Protein carbonylation was detected using OxyBlot™ Protein Oxidation (Millipore S7150; Temecula, CA, USA). Samples were prepared according to the manufacturer’s protocol and an equal amount of protein (25 µg) and volume were loaded in each lane of a 12.5% polyacrylamide gel and transferred to a nitrocellulose membrane (Whatman; 10-439-196; Dassel, Germany). The transfer was confirmed using a Memcode reversible protein stain kit (Pierce Biotechnology, Fisher Scientific) and the protein was used to normalize each lane. Membranes were incubated overnight at 4 °C with primary antibody (1:150) for OxyBlot. Goat anti-rabbit horse radish peroxidase (HRP, 1:300) was the secondary antibody. Protein with 4-hydroxynonenal (4-HNE) reduced Micahel adducts were prepared as described previously with the exception that 45 µg of protein was used for the gel. The membranes were developed using Amersham^TM ECLTM Western Blotting Reagents (GE Healthcare; Buckinghamshire, UK) and the results were viewed and analyzed using a Bio-Rad Chemidoc system with BioRad Chemidoc densitometry software (version 4.0.1, Catalog No. 170-9690, BioRad, Hercules, CA, USA).

Data set [4] has the same test system. Description: Protein carbonylation in IRCC (OxyBlot). Format: cell-based, male Fischer 344 rats. Here is the method: as §1, §2
The next data set concerns kidney. Details: method as in PMID 2576285. To be noted: 1.0 mmol/kg, intraperitoneally, cited from earlier work.

Regarding `O=[N+]([O-])c1ccc(Cl)c(Cl)c1Cl` [2,3,4-TCNB, 2,3,4-trichloronitrobenzene], the “Cytotoxicity (LDH release), time and concentration response” value in data set [1] was “exhibited cytotoxicity starting after 15 min (1.0 mM) and 60 min exposure (0.5 and 1.0 mM), but no cytotoxicity was observed at 15 min”. The “% of lactate dehydrogenase release, 2,3,4-TCNB” value in data set [2] was 28 ± 2 ^c % and 21 ± 1 ^c % and 22 ± 1 ^c % and 18 ± 1 ^c % and 20 ± 2 ^c % and 23 ± 2 ^c % and 20 ± 1 ^c % and 19 ± 1 ^c %. For the same compound, the “Lowest concentration inducing in vitro nephrotoxicity (increased LDH release and decreased pyruvate-stimulated gluconeogenesis)” value in the data set with renal cortical slices is on record as 0.5 mM.

As for `O=[N+]([O-])c1cc(Cl)c(Cl)c(Cl)c1` [3,4,5-TCNB], the “Cytotoxicity (LDH release), time and concentration response” value in data set [1] was “induced cytotoxicity at 30 and 60 min (0.5 and 1.0 mM) but not at 15 min”. Moreover, in data set [1] (as early as 30 min), the “Concentration at which cytotoxicity was evident” value came out at 500 µM. Moreover, in data set [1] (based on time of onset, lowest concentration required and magnitude of LDH release), the “Order of decreasing nephrotoxic potential” value is reported as “most potent nephrotoxicant”. Besides, the 4-HNE levels result in data set [3] is on record as “not increased”. Besides, the Protein carbonylation result is “slightly decreased” in data set [4] (1.0 mM, 30 min, p = 0.017) and “not increased” in data set [4] (0.5 or 1.0 mM, 15 or 30 min). Moreover, the “Lowest concentration inducing in vitro nephrotoxicity (increased LDH release and decreased pyruvate-stimulated gluconeogenesis)” value with renal cortical slices was 0.5 mM.

As for `O=[N+]([O-])c1ccc(Cl)cc1` [4-chloronitrobenzene], in the data set on kidney (48 h after treatment), the Renal effects entry is “induced diuresis, increased N-acetyl-β-D-glucosaminidase excretion, and caused swelling of the kidney”. Further, the “Urinary creatinine and blood urea nitrogen (BUN) concentrations” value in the data set on kidney is reported as “not altered”.
